Laboratory results published in US20240000767A1, “COMBINATION OF AN ALPHA2-ADRENOCEPTOR SUBTYPE C (ALPHA-2C) ANTAGONIST WITH A TASK1/3 CHANNEL BLOCKER FOR THE TREATMENT OF SLEEP APNEA” (Bayer Aktiengesellschaft, priority 2020, published 2024).

Legend:
human ADRA2C receptor [1] = target: T1, human ADRA2C receptor (Homo sapiens (Human), UniProt P18825); experiment: In vitro radioligand binding studies ([3H] rauwolscine competition) at the human adrenoreceptor ADRA2C
Method: B-1 In Vitro Radioligand Binding Studies for Determination of the Dissociation Constants K1 at the Human Adrenoreceptor ADRA2C (Eurofins Panlabs Discovery Services, Taiwan, Ltd)
A competition assay based on [^3H] rauwolscine as radioliganden was used to determine the binding affinity of the test substances at the human ADRA2C receptor.
To configure the competition assay, the equilibrium dissociation constant Kd of the radioligand [^3H] rauwolscine was determined in a saturation experiment. To this end, homogenates of CHO-K1 cells recombinantly expressing the human ADRA2C receptor were incubated with increasing concentrations of the radiotracers for 1 h at 4° C. in binding buffer (50 mM Tris-HCl, 1 mM EDTA, pH 7.4). Unspecific binding was determined by addition of an excess of the not radioactively labelled ligand prazosin (10 μM). The radioactivity was determined in a scintiation counter.
The competition experiments were carried out in the presence of 0.5 nM [^3H] rauwolscine and increasing concentrations of the test substances to be characterized under the conditions described above.
From the IC50 value measured in the competition experiment and the […] from the saturation experiment, the equilibrium constant Ki of the inhibitor, which describes the affinity of the test substances to the receptor, was calculated using the Cheng Prusoff equation [Cheng Y, Prusoff WH. Relationship between the inhibition constant (Ki) and the concentration of inhibitor which causes 50 percent inhibition (I50) of an enzymatic reaction. […] PMID 4202581 PMID: 4202581].

human ADRA2C receptor [2] = target: T1, human ADRA2C receptor; experiment: In vitro activity assay to determine the inhibition of recombinant ADRA2C (CHO-K1 cells, aequorin bioluminescence); format: cell-based; details: inhibition of noradrenaline-induced bioluminescence signal; some mean values from multiple determinations; read-out: ARα2C IC50
Method in brief: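 IC50 is the concentration halving the agonist (noradrenaline)-evoked rise in aequorin luminescence, fitted by 4-parameter Hill function. Read in stable Gαq/aequorin CHO-K1 cells expressing recombinant human ADRA2C.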

[3] = system: anaesthetized, spontaneously breathing pigs; experiment: Pig model of obstructive sleep apnea (OSA): upper airway collapsibility under negative pressure; format: in vivo, German Landrace pigs; details: 0.3 μg intranasal at 0 min
Excerpt: B-3 Animal Model of Obstructive Sleep Apnoea in the Pig
Using negative pressure, it is possible to induce collapse and thus obstruction of the upper respiratory tract in anesthetized, spontaneously breathing pigs [Wirth et al., Sleep 36, 699-708 (2013)].
German Landrace pigs are used for the model. The pigs are anesthetized and tracheotomized. One cannula each is inserted into the rostral and the caudal part of the trachea. Using a T connector, the rostral cannula is connected on the one hand to a device generating negative pressures and on the other hand to the caudal cannula. Using a T connector, the caudal cannula is connected to the rostral cannula and to a tube which allows spontaneous breathing circumventing the upper respiratory tract. By appropriate closing and opening of the tubes it is thus possible for the pig to change from normal nasal breathing to breathing via the caudal cannula during the time when the upper respiratory tract is isolated and connected to the device for generating negative pressures. The muscle activity of the musculus genioglossus is recorded by electromyogram (EMG).
(§1) At certain points in time, the collapsibility of the upper respiratory tract is tested by having the pig breathe via the caudal cannula and applying negative pressures of −50, −100 and −150 cm water head (cmH2O) to the upper respiratory tract. This causes the upper respiratory tract to collapse, which manifests itself in an interruption of the airflow and a pressure drop in the tube system. This test is conducted prior to the administration of the test substance and at certain intervals after the administration of the test substance. An appropriately effective test substance can prevent this collapse of the respiratory tract in the inspiratory phase.
Administration of the test substance can be intranasal, intravenous, subcutaneous, intraperitoneal, intraduodenal or intragastral.
The therapeutic potential of the combination of an α2-Adrenoceptor subtype C (alpha-2C) antagonists with a TASK⅓ channel blocker according to the present invention in sleep apnea can be assessed preclinically in a pig model of obstructive sleep apnea (OSA).
Using negative pressure, it is possible to induce collapse and thus obstruction of the upper respiratory tract in anaesthetized, spontaneously breathing pigs (Wirth K. J. et al., Sleep 36(5) (2013) pp. 699-708).
German Landrace pigs are used for the model. The pigs are anaesthetized and tracheotomized. Two tracheal cannulas are inserted into the trachea, one into the rostral part and the other into the caudal part of the trachea. Using a connection piece, the rostral cannula is connected to a tube to the negative pressure device and to the distal tracheal cannula. The distal tracheal cannula is additionally connected to a tube with an open end to atmosphere via a connection piece that served for free tracheal breathing, circumventing the upper airway. By appropriate opening and clamping of those tubes breathing can be switched from nasal breathing to breathing through the caudal tracheal cannula, circumventing the upper airway, and the (isolated) upper airway can be connected to the negative pressure device, causing airflow in the inspiratory direction.
as §1, with “(cm H2O)” for “(cmH2O)”

T1 sequence (P18825 whole entry): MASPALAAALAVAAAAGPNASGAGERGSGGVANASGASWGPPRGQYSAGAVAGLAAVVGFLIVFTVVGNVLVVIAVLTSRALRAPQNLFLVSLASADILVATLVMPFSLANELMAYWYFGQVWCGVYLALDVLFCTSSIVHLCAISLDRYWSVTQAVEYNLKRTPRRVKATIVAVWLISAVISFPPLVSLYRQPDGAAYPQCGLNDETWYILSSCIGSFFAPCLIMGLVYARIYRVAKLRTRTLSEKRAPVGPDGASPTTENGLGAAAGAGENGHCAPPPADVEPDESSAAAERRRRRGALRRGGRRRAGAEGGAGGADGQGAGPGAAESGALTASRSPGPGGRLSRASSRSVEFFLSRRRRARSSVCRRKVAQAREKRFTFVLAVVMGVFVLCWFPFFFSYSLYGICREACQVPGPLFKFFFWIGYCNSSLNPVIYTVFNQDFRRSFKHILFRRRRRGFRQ

Compound | IC50 (human ADRA2C receptor [1]; 0.5 nM [3H] rauwolscine, homogenates of CHO-K1 cells expressing human ADRA2C, 1 h at 4° C., read-out: hARα2C IC50) [nM] | Ki (human ADRA2C receptor [1]; calculated from IC50 and Kd with the Cheng Prusoff equation, read-out: hARα2C Ki) [nM] | IC50 (human ADRA2C receptor [2]) [nM] | Percent pigs without collaps −50 cm H2O ([3]; time 0 min) [%] | Percent pigs without collaps −100 cm H2O ([3]; time 0 min) [%] | Percent pigs without collaps −150 cm H2O ([3]; time 0 min) [%] | Percent pigs without collaps −50 cm H2O ([3]; time 10 min) [%] | Percent pigs without collaps −100 cm H2O ([3]; time 10 min) [%] | Percent pigs without collaps −150 cm H2O ([3]; time 10 min) [%] | Percent pigs without collaps −50 cm H2O ([3]; time 30 min) [%] | Percent pigs without collaps −100 cm H2O ([3]; time 30 min) [%] | Percent pigs without collaps −150 cm H2O ([3]; time 30 min) [%] | Percent pigs without collaps −50 cm H2O ([3]; time 60 min) [%] | Percent pigs without collaps −100 cm H2O ([3]; time 60 min) [%] | Percent pigs without collaps −150 cm H2O ([3]; time 60 min) [%] | Percent pigs without collaps −50 cm H2O ([3]; time 90 min) [%] | Percent pigs without collaps −100 cm H2O ([3]; time 90 min) [%] | Percent pigs without collaps −150 cm H2O ([3]; time 90 min) [%]
COCC1CCCN(C2CCN(c3ncc(C(=O)NCc4ncc(F)cc4F)s3)CC2)C1 (single isomer, unassigned) [Example 100, ent-N-[(3,5-Difluoropyridin-2-yl)methyl]-2-[3-(methoxymethyl)[1,4′-bipiperidin]-1′-yl]-1,3-thiazole-5-carboxamide] | 5 | 2 | 2.9 |  |  |  |  |  |  |  |  |  |  |  |  |  |  | 
COc1ccc(Cl)c(C(=O)N2C3CCC2CN(Cc2c(-c4ccc(C(C)C)cc4)nc4ncccn24)C3)n1 [(3-chloro-6-methoxypyridin-2-yl)(3-{[2-(4-isopropylphenyl)imidazo[1,2-a]pyrimidin-3-yl]methyl}-3,8-diazabicyclo[3.2.1]oct-8-yl)methanone] |  |  |  | 0 | 0 | 0 | 33 | 33 | 0 | 0 | 0 | 0 | 0 | 0 | 0 | 0 | 0 | 0
